Test results taken from patent US20220039386A1, “METHOD FOR CONTROLLING PESTS OF RAPESEED PLANTS” (BASF SE, priority 2018, published 2022).

How the values were obtained:
Phyllotreta striolata = assay: Canola foliar treatment, striped flea beetle mortality; assay type: in vivo
Protocol: 1. Canola-Striped Flea Beetle, Phyllotreta striolata:
Canola foliar treatment: Before application, construction paper was placed at the base of each plant to catch spray solution and therefore preventing beetle contact with contaminated soil and pots (allowing only the plants to be treated). Canola seedlings were treated at the first true leaf stage in a spray chamber at 300 L/ha with a three nozzle (TX-6) flat boom. Plants were allowed to dry, paper was removed, and plants were transferred to a greenhouse to hold over night. At infest, three plants (replicates) per treatment were placed into a bucket. Twenty adult flea beetles (mix sex) were aspirated into a vial and placed in the center of the bucket. The container was closed and placed into a Percival at 25 C 50% RH. Mortality evaluation was made on 6 DAI.

Meligethes aeneus = assay: Oilseed rape inflorescence dip (foliar application), pollen beetle control; assay type: in vivo
Protocol: 2. Oilseed Rape—Pollen Beetle, Meligethes aeneus:
Foliar application: Test units consisted of a plastic cup with a hole in the bottom and a glass vial below that hole, containing irrigation water. Oil seed rape inflorescences were dipped into the treatment solutions and after drying placed inside the plastic cups. Each cup was sealed with a perforated, transparent lid. Ten adult pollen beetles, field collected, were added to each cup. Each treatment was replicated three times. Pollen beetle survival was assessed 3 days after application.

C[n+]1c([O-])c(-c2ccccc2)c(=O)n2c1SC[C@@H]2c1cnc(Cl)s1 [Compound I-R-1]
mortality at 600 ppm (Phyllotreta striolata; Phyllotreta striolata, in Brassica napus, 600 ppm, foliar spray 300 L/ha on canola seedlings at first true leaf, adult flea beetles, evaluation 6 DAI): ≥ 65% | flea beetle control (summary in words) (Phyllotreta striolata; canola foliar treatment, Table 1): good flea beetle control | Percent control (%) A03 (Meligethes aeneus; 72 g ai/ha, oil seed rape inflorescences dipped, field collected adult pollen beetles, assessed 3 days after application): 47.8 a % | efficacy against the adults of pollen beetle (summary in words) (Meligethes aeneus; foliar application): good efficacy
